From patent US20260078135A1, “POLYCYCLIC QUINAZOLINES FOR INHIBITION OF ERBB2” (Enliven Inc., priority 2022, published 2026)

How the values were obtained:
Ba/F3 ERBB2 YVMA = Ba/F3 ERBB2 YVMA (Homo sapiens, UniProt P04626, DUP772-775, cells depend on it); experiment: Cell viability assay (CellTiter Glo), Ba/F3 cells engineered to express ERBB2 YVMA; assay type: cell-based, mouse; conditions: Ba/F3 cells expressing human ERBB2 YVMA mutant, 72 hours, read-out: Ba/F3 ERBB2 YVMA, IC50
Method: Cells were treated with compounds, and cell viability was measured as a metric of kinase inhibition.
BT-474, A431, MDA-MB-175VII, NCI-H1781, MCF7, and Ba/F3 cell lines were tested. The Ba/F3 cell line is IL-3-dependent mouse cell line derived from the C3H mouse strain. Ba/F3 cell lines were engineered to express human ERBB2 or EGFR kinases, rendering the cells IL-3 independent. The lines were generated via retroviral transduction utilizing a Moloney murine leukemia virus (MMLV) promoter, and constructs are stably integrated into the cell genome. The sequences of the ERBB2 and EGFR genes used were NCBI Reference Sequences NM_004448.3 and NM_005228.3, respectively.
BT-474, A431, MDA-MB-175VII, NCI-H1781 and MCF7 cells were grown in the appropriate growth medium as described in Table B2 below, and harvested at 50-80% confluence. BT-474, A431, MDA-MB-175VII, NCI-H1781 and MCF7 cells were counted and seeded at 2,000 or 1,500 cells per well in 384-well tissue culture plates (see Table B2). Similarly, Ba/F3 cell lines engineered to express EGFR, ERBB2, or ERBB2 mutants were grown, harvested, counted and seeded at 3000 cells per well in 96-well plates. A subset of wells contained media only (low control, “LC”).
Table B1 provides the growth media and number of cells seeded per well for the each cell line.
Compounds were dissolved in DMSO and serially diluted. Serially-diluted compound or a DMSO only control (high control, “HC”) was added to the plated cells in each well. Compounds were tested at concentrations of about 10 μM to 0.51 nM, using three-fold dilutions. The final proportion of DMSO never exceeded 0.1%.
Plates were placed in a 37° C., 5% CO2 incubator for 72 hours. Plates were then removed from the incubator and equilibrated for 15 minutes at room temperature. 40 μl of CellTiter Glo reagent (Promega) was added to measure the relative level of metabolically active cells by quantifying intracellular ATP concentrations. Plates were incubated for 30 minutes at room temperature, and luminescence was measured. Percent viability was normalized to a vehicle control only using the following formula: % viability=100×(Lumsample−LumLC)/(LumHC−LumLC). Graphical curves were fitted using a nonlinear regression model with a sigmoidal dose response.

[1] = target: T1, phosphorylated ERBB2 (pERBB2) (Homo sapiens, UniProt P04626); experiment: Detection of phosphorylated ERBB2 (pERBB2) by ELISA in BT-474 cells; assay type: cell-based; conditions: four hour incubation
T1 construct: endogenous in cells; host or cells: BT-474
T1 sequence (P04626 23-1255): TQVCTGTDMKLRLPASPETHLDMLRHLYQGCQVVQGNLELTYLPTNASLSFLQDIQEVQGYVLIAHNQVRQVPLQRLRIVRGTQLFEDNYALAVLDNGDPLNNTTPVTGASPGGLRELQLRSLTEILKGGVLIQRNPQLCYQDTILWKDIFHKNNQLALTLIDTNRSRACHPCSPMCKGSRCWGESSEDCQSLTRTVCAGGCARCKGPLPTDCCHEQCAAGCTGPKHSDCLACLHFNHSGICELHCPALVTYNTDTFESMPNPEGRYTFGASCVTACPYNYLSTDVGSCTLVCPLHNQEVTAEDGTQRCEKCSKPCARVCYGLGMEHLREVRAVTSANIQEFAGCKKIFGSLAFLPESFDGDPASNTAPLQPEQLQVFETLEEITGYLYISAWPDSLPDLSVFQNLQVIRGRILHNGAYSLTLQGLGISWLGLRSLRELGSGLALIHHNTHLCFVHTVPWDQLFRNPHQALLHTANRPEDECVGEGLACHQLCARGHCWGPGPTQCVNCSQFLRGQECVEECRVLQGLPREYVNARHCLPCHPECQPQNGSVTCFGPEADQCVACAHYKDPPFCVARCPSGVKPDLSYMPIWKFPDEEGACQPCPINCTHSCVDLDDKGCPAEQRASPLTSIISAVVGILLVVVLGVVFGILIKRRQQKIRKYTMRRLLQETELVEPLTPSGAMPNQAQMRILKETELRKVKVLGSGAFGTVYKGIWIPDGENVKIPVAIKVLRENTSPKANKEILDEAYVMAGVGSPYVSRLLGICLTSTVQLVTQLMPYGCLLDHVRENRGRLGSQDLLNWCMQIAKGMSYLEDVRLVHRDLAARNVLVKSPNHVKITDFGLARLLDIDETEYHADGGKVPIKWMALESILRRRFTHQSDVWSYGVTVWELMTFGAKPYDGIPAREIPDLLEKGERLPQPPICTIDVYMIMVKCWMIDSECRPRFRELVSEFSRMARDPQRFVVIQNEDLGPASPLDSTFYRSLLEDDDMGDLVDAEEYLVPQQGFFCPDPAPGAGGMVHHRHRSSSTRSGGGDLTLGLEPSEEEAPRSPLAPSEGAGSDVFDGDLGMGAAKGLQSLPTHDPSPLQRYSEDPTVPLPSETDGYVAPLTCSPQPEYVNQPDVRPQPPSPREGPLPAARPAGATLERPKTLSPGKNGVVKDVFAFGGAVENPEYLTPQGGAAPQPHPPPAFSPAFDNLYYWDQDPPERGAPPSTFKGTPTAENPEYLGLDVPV
In short: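 BT-474 cells were treated with compounds (fourfold dilutions, 10 μM to 0.01 nM final) for 4 h at 37 °C, then lysed. pERBB2 in lysates was quantified by ELISA with an HRP anti-phosphotyrosine detection antibody and TMB read at 450 nm; % relative activity was normalized to no-cell and 0.1% DMSO controls.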

[2] = target: T2, phosphorylated EGFR (pEGFR) (Homo sapiens, UniProt P00533); experiment: Detection of phosphorylated EGFR (pEGFR) by AlphaLISA in EGF-stimulated A431 cells; assay type: cell-based; conditions: A431 cells (10% FBS), 4 hours incubation, EGF 30 ng/mL for 10 minutes
T2 construct: performed to measure phosphorylated EGFR levels using A431 cells (10% FBS); endogenous in cells; host or cells: A431
T2 sequence (P00533 25-1210): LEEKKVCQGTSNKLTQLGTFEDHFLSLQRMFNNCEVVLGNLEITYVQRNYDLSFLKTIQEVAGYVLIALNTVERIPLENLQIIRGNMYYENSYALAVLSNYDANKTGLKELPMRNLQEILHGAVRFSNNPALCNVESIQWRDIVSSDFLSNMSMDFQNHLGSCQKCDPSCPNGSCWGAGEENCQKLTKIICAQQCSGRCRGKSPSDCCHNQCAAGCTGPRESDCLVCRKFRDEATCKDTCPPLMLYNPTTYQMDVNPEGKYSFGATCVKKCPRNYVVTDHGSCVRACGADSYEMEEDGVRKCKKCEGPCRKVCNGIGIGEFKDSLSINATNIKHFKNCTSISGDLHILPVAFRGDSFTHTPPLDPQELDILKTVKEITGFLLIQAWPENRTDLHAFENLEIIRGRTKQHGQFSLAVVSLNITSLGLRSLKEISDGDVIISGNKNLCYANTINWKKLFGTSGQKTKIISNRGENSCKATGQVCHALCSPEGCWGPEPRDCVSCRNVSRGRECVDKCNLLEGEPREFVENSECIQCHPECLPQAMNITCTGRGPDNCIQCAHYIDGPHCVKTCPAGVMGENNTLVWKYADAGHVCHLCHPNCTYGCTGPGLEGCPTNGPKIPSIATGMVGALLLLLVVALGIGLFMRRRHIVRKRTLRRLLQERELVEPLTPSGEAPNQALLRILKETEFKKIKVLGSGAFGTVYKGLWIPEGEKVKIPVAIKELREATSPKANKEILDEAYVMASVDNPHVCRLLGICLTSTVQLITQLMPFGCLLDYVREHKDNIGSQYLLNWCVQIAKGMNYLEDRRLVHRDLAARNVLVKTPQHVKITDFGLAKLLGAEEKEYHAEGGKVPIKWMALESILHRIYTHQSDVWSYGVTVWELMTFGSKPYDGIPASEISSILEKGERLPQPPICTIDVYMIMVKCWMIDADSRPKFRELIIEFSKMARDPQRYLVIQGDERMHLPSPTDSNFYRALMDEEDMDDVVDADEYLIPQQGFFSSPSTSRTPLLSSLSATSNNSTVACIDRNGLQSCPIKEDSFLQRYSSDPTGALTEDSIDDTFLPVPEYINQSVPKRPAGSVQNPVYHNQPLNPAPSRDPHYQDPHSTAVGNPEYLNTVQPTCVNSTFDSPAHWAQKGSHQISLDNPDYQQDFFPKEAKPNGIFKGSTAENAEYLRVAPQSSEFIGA
In short: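 pEGFR was quantified by AlphaLISA in lysates of A431 cells (10% FBS) given a 10 min pulse of EGF at 30 ng/mL after 4 h compound exposure at 37 °C. IC50 came from a four-parameter fit of % inhibition between DMSO and staurosporine controls.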

Ba/F3 ERBB2 YVMA, sequence (P04626 with tags, fused parts or gaps DUP772-775): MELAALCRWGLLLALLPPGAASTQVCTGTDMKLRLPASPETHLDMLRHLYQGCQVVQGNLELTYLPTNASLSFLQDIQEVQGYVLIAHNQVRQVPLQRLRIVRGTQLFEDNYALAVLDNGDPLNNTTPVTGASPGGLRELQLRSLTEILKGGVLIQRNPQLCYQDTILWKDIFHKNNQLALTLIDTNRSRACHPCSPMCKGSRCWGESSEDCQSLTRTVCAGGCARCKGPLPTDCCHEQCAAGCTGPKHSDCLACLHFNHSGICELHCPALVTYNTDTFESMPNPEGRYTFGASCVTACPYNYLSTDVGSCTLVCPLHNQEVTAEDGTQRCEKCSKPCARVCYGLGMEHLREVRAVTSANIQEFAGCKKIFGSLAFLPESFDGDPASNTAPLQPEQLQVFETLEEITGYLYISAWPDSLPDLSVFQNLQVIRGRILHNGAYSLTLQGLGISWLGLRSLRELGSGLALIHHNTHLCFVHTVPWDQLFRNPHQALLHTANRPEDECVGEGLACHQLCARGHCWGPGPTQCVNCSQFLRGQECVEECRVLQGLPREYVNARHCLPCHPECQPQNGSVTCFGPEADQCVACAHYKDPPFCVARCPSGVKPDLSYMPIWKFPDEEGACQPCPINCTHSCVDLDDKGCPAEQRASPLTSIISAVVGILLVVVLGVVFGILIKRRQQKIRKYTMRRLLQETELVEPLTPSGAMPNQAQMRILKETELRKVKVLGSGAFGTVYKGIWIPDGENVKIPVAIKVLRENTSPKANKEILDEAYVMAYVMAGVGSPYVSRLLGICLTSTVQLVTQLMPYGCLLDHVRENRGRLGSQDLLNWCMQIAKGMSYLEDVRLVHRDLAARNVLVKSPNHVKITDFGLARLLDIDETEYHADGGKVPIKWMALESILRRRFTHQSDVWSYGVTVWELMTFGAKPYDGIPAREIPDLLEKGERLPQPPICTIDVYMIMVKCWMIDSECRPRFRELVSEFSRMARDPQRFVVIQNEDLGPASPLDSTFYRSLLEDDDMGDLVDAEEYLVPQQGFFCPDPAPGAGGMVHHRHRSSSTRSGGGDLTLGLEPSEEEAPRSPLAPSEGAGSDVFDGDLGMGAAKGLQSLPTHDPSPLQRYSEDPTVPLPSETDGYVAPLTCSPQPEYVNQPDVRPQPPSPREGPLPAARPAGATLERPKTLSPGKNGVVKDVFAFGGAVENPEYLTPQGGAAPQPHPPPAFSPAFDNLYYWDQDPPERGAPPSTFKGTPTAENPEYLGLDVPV

Cc1cc(Nc2ncnc3ccc4c(c23)OC[C@@H]2CN(C(=O)/C=C/CN(C)C)CCN42)ccc1Oc1ccc2c(c1)ncn2C [Compound 23, (S,E)-4-(dimethylamino)-1-(4-((3-methyl-4-((1-methyl-1H-benzo[d]imidazol-5-yl)oxy)phenyl)amino)-6a,7,9,10-tetrahydropyrazino[1′,2′:4,5][1,4]oxazino[2,3-f]quinazolin-8(6H)-yl)but-2-en-1-one]
GI50 (Ba/F3 ERBB2 YVMA): 13.8 nM
IC50 [1]: 27.4 nM
IC50 [2]: 817 nM

Cc1cc(Nc2ncnc3ccc4c(c23)OC[C@@H]2CN4CCN2C(=O)/C=C/CN(C)C)ccc1Oc1ccc2c(c1)ncn2C [Compound 30, (E)-4-(dimethylamino)-1-((3S)-13-((3-methyl-4-((1-methyl-1H-benzo[d]imidazol-5-yl)oxy)phenyl)amino)-2,3,5,6-tetrahydro-4H-3,7-methano[1,4,7]oxadiazonino[2,3-f]quinazolin-4-yl)but-2-en-1-one]
GI50 (Ba/F3 ERBB2 YVMA): > 500 nM
IC50 [1]: 304 nM
IC50 [2]: > 10000 nM

Cc1cc(Nc2ncnc3cc4c(cc23)N2CCN(C(=O)/C=C/CN(C)C)C[C@H]2CO4)ccc1Oc1ccn2ncnc2c1 [Compound 9, (S,E)-1-(11-((4-([1,2,4]triazolo[1,5-a]pyridin-7-yloxy)-3-methylphenyl)amino)-1,2,4a,5-tetrahydropyrazino[1′,2′:4,5][1,4]oxazino[3,2-g]quinazolin-3(4H)-yl)-4-(dimethylamino)but-2-en-1-one]
GI50 (Ba/F3 ERBB2 YVMA): 41.2 nM
IC50 [1]: 36.1 nM
IC50 [2]: 1680 nM

Cc1cc(Nc2ncnc3ccc4c(c23)OC[C@@H]2CN(C(=O)/C=C/CN(C)C)CCN42)c(F)cc1Oc1ccn2ncnc2c1 [Compound 92, (S,E)-1-(4-((4-([1,2,4]triazolo[1,5-a]pyridin-7-yloxy)-2-fluoro-5-methylphenyl)amino)-6a,7,9,10-tetrahydropyrazino[1′,2′:4,5][1,4]oxazino[2,3-f]quinazolin-8(6H)-yl)-4-(dimethylamino)but-2-en-1-one]
GI50 (Ba/F3 ERBB2 YVMA): 18 nM
IC50 [1]: 20.8 nM
IC50 [2]: 2160 nM

Cc1cc(Nc2ncnc3ccc4c(c23)OC[C@@H]2CN4CCN2C)ccc1Oc1ccn2ncnc2c1 [Compound 50, (3S)—N-(4-([1,2,4]triazolo[1,5-a]pyridin-7-yloxy)-3-methylphenyl)-4-methyl-3,4,5,6-tetrahydro-2H-3,7-methano[1,4,7]oxadiazonino[2,3-f]quinazolin-13-amine]
GI50 (Ba/F3 ERBB2 YVMA): > 500 nM
IC50 [1]: 195 nM
IC50 [2]: > 10000 nM

Cc1cc(Nc2ncnc3cc4c(cc23)N2CCN(C(=O)/C=C/CN(C)C)C[C@@H]2CO4)ccc1Oc1ccn2ncnc2c1 [Compound 10, (R,E)-1-(11-((4-([1,2,4]triazolo[1,5-a]pyridin-7-yloxy)-3-methylphenyl)amino)-1,2,4a,5-tetrahydropyrazino[1′,2′:4,5][1,4]oxazino[3,2-g]quinazolin-3(4H)-yl)-4-(dimethylamino)but-2-en-1-one]
GI50 (Ba/F3 ERBB2 YVMA): 84.9 nM
IC50 [1]: 32.7 nM
IC50 [2]: 3280 nM

Cc1cc(Nc2ncnc3cnc4c(c23)OC[C@H]2CN(C)CCN42)ccc1Oc1ccc2c(c1)ncn2C [Compound 120, (R)-8-methyl-N-(3-methyl-4-((1-methyl-1H-benzo[d]imidazol-5-yl)oxy)phenyl)-6,6a,7,8,9,10-hexahydropyrazino[1,2-d]pyrimido[5′,4′:4,5]pyrido[3,2-b][1,4]oxazin-4-amine]
GI50 (Ba/F3 ERBB2 YVMA): 44.3 nM
IC50 [1]: 26.4 nM
IC50 [2]: > 10000 nM

Cc1cc(Nc2ncnc3ccc4c(c23)OC[C@@H]2CN4CCN2)ccc1Oc1ccn2ncnc2c1 [Compound 49, (3S)—N-(4-([1,2,4]triazolo[1,5-a]pyridin-7-yloxy)-3-methylphenyl)-3,4,5,6-tetrahydro-2H-3,7-methano[1,4,7]oxadiazonino[2,3-f]quinazolin-13-amine]
GI50 (Ba/F3 ERBB2 YVMA): > 500 nM
IC50 [1]: 466 nM
IC50 [2]: > 10000 nM

Cc1cc(Nc2ncnc3cc4c(nc23)N2CCN(C(=O)/C=C/CN(C)C)C[C@H]2CO4)ccc1Oc1ccc2c(c1)ncn2C [Compound 17, (S,E)-4-(dimethylamino)-1-(11-((3-methyl-4-((1-methyl-1H-benzo[d]imidazol-5-yl)oxy)phenyl)amino)-1,2,4a,5-tetrahydropyrazino[1,2-d]pyrimido[4′,5′:5,6]pyrido[3,2-b][1,4]oxazin-3(4H)-yl)but-2-en-1-one]
GI50 (Ba/F3 ERBB2 YVMA): 5.11 nM
IC50 [1]: 34.3 nM
IC50 [2]: 307 nM

Cc1cc(Nc2ncnc3ccc4c(c23)O[C@H]2CCN(C)C[C@H]2N4)ccc1Oc1ccc2c(c1)ncn2C [Compound 125, (7aR,11aS)-9-methyl-N-(3-methyl-4-((1-methyl-1H-benzo[d]imidazol-5-yl)oxy)phenyl)-7a,8,9,10,11,11a-hexahydro-7H-pyrido[3′,4′:5,6][1,4]oxazino[2,3-f]quinazolin-1-amine]
GI50 (Ba/F3 ERBB2 YVMA): 164 nM
IC50 [1]: 58 nM
IC50 [2]: > 10000 nM

CN(C)C/C=C/C(=O)N1CCN2C[C@@H]1COc1c2ccc2ncnc(Nc3ccc(Oc4ccn5ncnc5c4)cc3F)c12 [Compound 78, (E)-1-((3R)-13-((4-([1,2,4]triazolo[1,5-a]pyridin-7-yloxy)-2-fluorophenyl)amino)-2,3,5,6-tetrahydro-4H-3,7-methano[1,4,7]oxadiazonino[2,3-f]quinazolin-4-yl)-4-(dimethylamino)but-2-en-1-one]
GI50 (Ba/F3 ERBB2 YVMA): 10.9 nM
IC50 [1]: 8.87 nM
IC50 [2]: 341 nM

C=CC(=O)N1CCN2c3nc4c(Nc5ccc(Oc6ccn7ncnc7c6)c(C)c5)ncnc4cc3OC[C@H]2C1 [Compound 2, (R)-1-(11-((4-([1,2,4]triazolo[1,5-a]pyridin-7-yloxy)-3-methylphenyl)amino)-1,2,4a,5-tetrahydropyrazino[1,2-d]pyrimido[4′,5′:5,6]pyrido[3,2-b][1,4]oxazin-3(4H)-yl)prop-2-en-1-one]
GI50 (Ba/F3 ERBB2 YVMA): 4.54 nM
IC50 [1]: 8.97 nM
IC50 [2]: 421 nM

Cc1cc(Nc2ncnc3ccc4c(c23)OC[C@H]2CN4CCN2C(=O)/C=C/CN(C)C)ccc1Oc1ccn2ncnc2c1 [Compound 27, (E)-1-((3R)-13-((4-([1,2,4]triazolo[1,5-a]pyridin-7-yloxy)-3-methylphenyl)amino)-2,3,5,6-tetrahydro-4H-3,7-methano[1,4,7]oxadiazonino[2,3-f]quinazolin-4-yl)-4-(dimethylamino)but-2-en-1-one]
GI50 (Ba/F3 ERBB2 YVMA): 7.69 nM
IC50 [1]: 8.75 nM
IC50 [2]: 189 nM

CN(C)C/C=C/C(=O)N1CCN2c3ccc4ncnc(Nc5ccc(Oc6ccn7ncnc7c6)c(F)c5)c4c3OC[C@H]2C1 [Compound 118, (R,E)-1-(4-((4-([1,2,4]triazolo[1,5-a]pyridin-7-yloxy)-3-fluorophenyl)amino)-6a,7,9,10-tetrahydropyrazino[1′,2′:4,5][1,4]oxazino[2,3-f]quinazolin-8(6H)-yl)-4-(dimethylamino)but-2-en-1-one]
GI50 (Ba/F3 ERBB2 YVMA): 35.7 nM
IC50 [1]: 25 nM
IC50 [2]: 3120 nM

Cc1cc(Nc2ncnc3cnc4c(c23)OC[C@H]2CN4CCN2C(=O)/C=C/CN(C)C)ccc1Oc1ccn2ncnc2c1 [Compound 82, (E)-1-((3R)-13-((4-([1,2,4]triazolo[1,5-a]pyridin-7-yloxy)-3-methylphenyl)amino)-2,3,5,6-tetrahydro-4H-3,7-methanopyrimido[5′,4′:4,5]pyrido[3,2-b][1,4,7]oxadiazonin-4-yl)-4-(dimethylamino)but-2-en-1-one]
GI50 (Ba/F3 ERBB2 YVMA): 6.9 nM
IC50 [1]: 7.9 nM
IC50 [2]: 199 nM

C=CC(=O)N1CCN2C[C@@H]1COc1c2ccc2ncnc(Nc3ccc(Oc4ccc5c(c4)ncn5C)c(C)c3)c12 [Compound 29, 1-((3R)-13-((3-methyl-4-((1-methyl-1H-benzo[d]imidazol-5-yl)oxy)phenyl)amino)-2,3,5,6-tetrahydro-4H-3,7-methano[1,4,7]oxadiazonino[2,3-f]quinazolin-4-yl)prop-2-en-1-one]
GI50 (Ba/F3 ERBB2 YVMA): 23.9 nM
IC50 [1]: 30.7 nM
IC50 [2]: 2930 nM
